Measured values taken from the NIST ThermoML archive (doi:10.1016/j.jct.2016.01.002).
± gives the expanded uncertainty stated by the source.

Experiment: xn = mol fraction of the nth substance listed
Conditions: 100 kPa, Liquid; for electrical conductivity: Direct current cell with electrodes; for mass density: Vibrating tube method; for viscosity: Concentric cylinders viscometry

[Cl][Fe]([Cl])[Cl] [ferric chloride] + CCCCn1cc[n+](C)c1.[Cl-]
Conditions	electrical conductivity [S/m]	mass density [kg/m3]	viscosity [mPa·s]
293.15 K, x1 = 0.3704	0.1033 ± 0.001	1279.5 ± 7.3	–
293.15 K, x1 = 0.4	0.172 ± 0.002	1299.3 ± 7.4	–
293.15 K, x1 = 0.4348	0.306 ± 0.003	1322.8 ± 7.5	–
293.15 K, x1 = 0.4545	0.406 ± 0.004	1337.1 ± 7.6	–
293.15 K, x1 = 0.4762	0.541 ± 0.005	1352.4 ± 7.7	–
293.15 K, x1 = 0.5	0.722 ± 0.007	1369.9 ± 7.8	–
293.15 K, x1 = 0.5238	0.675 ± 0.007	1391.6 ± 7.9	–
293.15 K, x1 = 0.5652	0.626 ± 0.006	1433.4 ± 8.2	–
293.15 K, x1 = 0.6	0.604 ± 0.006	1468.1 ± 8.4	–
298.15 K, x1 = 0.3704	0.1436 ± 0.0014	1275.8 ± 7.2	195.6 ± 9.6
298.15 K, x1 = 0.4	0.228 ± 0.002	1295.2 ± 7.4	123 ± 5
298.15 K, x1 = 0.4348	0.387 ± 0.004	1318.7 ± 7.5	70.2 ± 2.3
298.15 K, x1 = 0.4545	0.502 ± 0.005	1332.9 ± 7.6	51.1 ± 1.5
298.15 K, x1 = 0.4762	0.658 ± 0.007	1348.3 ± 7.7	38.7 ± 1.1
298.15 K, x1 = 0.5	0.864 ± 0.009	1365.7 ± 7.8	31.2 ± 0.8
298.15 K, x1 = 0.5238	0.809 ± 0.008	1387.4 ± 7.9	30.1 ± 0.8
298.15 K, x1 = 0.5652	0.747 ± 0.007	1428.8 ± 8.2	28.4 ± 0.8
298.15 K, x1 = 0.6	0.719 ± 0.007	1463.5 ± 8.4	27.4 ± 0.7
303.15 K, x1 = 0.3704	0.192 ± 0.002	1271.9 ± 7.2	–
303.15 K, x1 = 0.4	0.295 ± 0.003	1291.2 ± 7.3	–
303.15 K, x1 = 0.4348	0.478 ± 0.005	1314.4 ± 7.5	–
303.15 K, x1 = 0.4545	0.61 ± 0.006	1328.8 ± 7.6	–
303.15 K, x1 = 0.4762	0.786 ± 0.008	1343.8 ± 7.7	–
303.15 K, x1 = 0.5	1.011 ± 0.01	1361.4 ± 7.8	–
303.15 K, x1 = 0.5238	0.952 ± 0.01	1383.4 ± 7.9	–
303.15 K, x1 = 0.5652	0.878 ± 0.009	1424.3 ± 8.1	–
303.15 K, x1 = 0.6	0.84 ± 0.008	1458.4 ± 8.3	–
308.15 K, x1 = 0.3704	0.25 ± 0.003	1268.1 ± 7.2	–
308.15 K, x1 = 0.4	0.371 ± 0.004	1287.4 ± 7.3	–
308.15 K, x1 = 0.4348	0.582 ± 0.006	1310.2 ± 7.5	–
308.15 K, x1 = 0.4545	0.728 ± 0.007	1324.8 ± 7.5	–
308.15 K, x1 = 0.4762	0.926 ± 0.009	1339.7 ± 7.6	–
308.15 K, x1 = 0.5	1.18 ± 0.012	1357.3 ± 7.7	–
308.15 K, x1 = 0.5238	1.105 ± 0.011	1378.9 ± 7.9	–
308.15 K, x1 = 0.5652	1.017 ± 0.01	1420 ± 8.1	–
308.15 K, x1 = 0.6	0.973 ± 0.01	1454.3 ± 8.3	–
313.15 K, x1 = 0.3704	0.316 ± 0.003	1264.2 ± 7.2	–
313.15 K, x1 = 0.4	0.457 ± 0.005	1283.3 ± 7.3	–
313.15 K, x1 = 0.4348	0.696 ± 0.007	1306.5 ± 7.4	–
313.15 K, x1 = 0.4545	0.858 ± 0.009	1320.6 ± 7.5	–
313.15 K, x1 = 0.4762	1.07 ± 0.011	1335.6 ± 7.6	–
313.15 K, x1 = 0.5	1.35 ± 0.014	1353.1 ± 7.7	–
313.15 K, x1 = 0.5238	1.26 ± 0.013	1374.5 ± 7.8	–
313.15 K, x1 = 0.5652	1.16 ± 0.012	1415.6 ± 8.1	–
313.15 K, x1 = 0.6	1.114 ± 0.011	1449.7 ± 8.3	–
318.15 K, x1 = 0.3704	0.394 ± 0.004	1260.6 ± 7.2	–
318.15 K, x1 = 0.4	0.556 ± 0.006	1279.6 ± 7.3	–
318.15 K, x1 = 0.4348	0.823 ± 0.008	1302.4 ± 7.4	–
318.15 K, x1 = 0.4545	0.998 ± 0.01	1316.7 ± 7.5	–
318.15 K, x1 = 0.4762	1.233 ± 0.012	1331.6 ± 7.6	–
318.15 K, x1 = 0.5	1.535 ± 0.015	1349 ± 7.7	–
318.15 K, x1 = 0.5238	1.44 ± 0.014	1370.4 ± 7.8	–
318.15 K, x1 = 0.5652	1.325 ± 0.013	1411.2 ± 8.1	–
318.15 K, x1 = 0.6	1.26 ± 0.013	1445.3 ± 8.3	–
323.15 K, x1 = 0.3704	0.483 ± 0.005	1256.7 ± 7.1	–
323.15 K, x1 = 0.4	0.666 ± 0.007	1275.7 ± 7.3	–
323.15 K, x1 = 0.4348	0.961 ± 0.01	1298.5 ± 7.4	–
323.15 K, x1 = 0.4545	1.15 ± 0.01	1312.6 ± 7.5	–
323.15 K, x1 = 0.4762	1.4 ± 0.014	1327.5 ± 7.6	–
323.15 K, x1 = 0.5	1.726 ± 0.017	1344.7 ± 7.7	–
323.15 K, x1 = 0.5238	1.623 ± 0.016	1366.2 ± 7.8	–
323.15 K, x1 = 0.5652	1.5 ± 0.015	1406.7 ± 8	–
323.15 K, x1 = 0.6	1.423 ± 0.014	1440.7 ± 8.2	–
328.15 K, x1 = 0.3704	0.581 ± 0.006	1253 ± 7.1	–
328.15 K, x1 = 0.4	0.783 ± 0.008	1271.8 ± 7.2	–
328.15 K, x1 = 0.4348	1.108 ± 0.011	1294.6 ± 7.4	–
328.15 K, x1 = 0.4545	1.311 ± 0.013	1308.7 ± 7.4	–
328.15 K, x1 = 0.4762	1.58 ± 0.016	1323.3 ± 7.5	–
328.15 K, x1 = 0.5	1.929 ± 0.019	1340.7 ± 7.6	–
328.15 K, x1 = 0.5238	1.812 ± 0.018	1361.9 ± 7.8	–
328.15 K, x1 = 0.5652	1.67 ± 0.017	1402.4 ± 8	–
328.15 K, x1 = 0.6	1.59 ± 0.016	1436.3 ± 8.2	–
333.15 K, x1 = 0.3704	0.691 ± 0.007	1249.2 ± 7.1	–
333.15 K, x1 = 0.4	0.913 ± 0.009	1267.8 ± 7.2	–
333.15 K, x1 = 0.4348	1.27 ± 0.013	1290.7 ± 7.3	–
333.15 K, x1 = 0.4545	1.48 ± 0.015	1304.6 ± 7.4	–
333.15 K, x1 = 0.4762	1.76 ± 0.018	1319.5 ± 7.5	–
333.15 K, x1 = 0.5	2.14 ± 0.021	1336.5 ± 7.6	–
333.15 K, x1 = 0.5238	2.014 ± 0.02	1357.7 ± 7.7	–
333.15 K, x1 = 0.5652	1.85 ± 0.019	1398 ± 8	–
333.15 K, x1 = 0.6	1.76 ± 0.018	1431.8 ± 8.2	–
338.15 K, x1 = 0.3704	0.814 ± 0.008	1245.5 ± 7.1	–
338.15 K, x1 = 0.4	1.05 ± 0.011	1263.9 ± 7.2	–
338.15 K, x1 = 0.4348	1.436 ± 0.014	1286.8 ± 7.3	–
338.15 K, x1 = 0.4545	1.66 ± 0.017	1300.6 ± 7.4	–
338.15 K, x1 = 0.4762	1.96 ± 0.02	1315.5 ± 7.5	–
338.15 K, x1 = 0.5	2.35 ± 0.024	1332.3 ± 7.6	–
338.15 K, x1 = 0.5238	2.219 ± 0.022	1353.2 ± 7.7	–
338.15 K, x1 = 0.5652	2.042 ± 0.02	1393.7 ± 8	–
338.15 K, x1 = 0.6	1.936 ± 0.019	1427.3 ± 8.2	–
343.15 K, x1 = 0.3704	0.949 ± 0.01	1241 ± 7	–
343.15 K, x1 = 0.4	1.208 ± 0.012	1260.3 ± 7.2	–
343.15 K, x1 = 0.4348	1.614 ± 0.016	1282.6 ± 7.3	–
343.15 K, x1 = 0.4545	1.85 ± 0.019	1296.7 ± 7.4	–
343.15 K, x1 = 0.4762	2.16 ± 0.022	1311.3 ± 7.5	–
343.15 K, x1 = 0.5	2.58 ± 0.03	1328.3 ± 7.6	–
343.15 K, x1 = 0.5238	2.435 ± 0.024	1349.2 ± 7.7	–
343.15 K, x1 = 0.5652	2.24 ± 0.02	1389.3 ± 7.9	–
343.15 K, x1 = 0.6	2.12 ± 0.02	1422.9 ± 8.1	–
